Assay results as given in US9560852B2, “Combinations of biological control agents and insecticides or fungicides” (Bayer Intellectual Property GmbH, priority 2008, dated 2017).

Legend:
Type in all cases: in vivo
cotton seed = experiment: Root system enhancement by neonicotinoid seed treatment, WinRhizo root analysis; details: 28 days after planting, fungicide base plus insecticide seed treatment
Method: In this experiment cotton seed was treated with a fungicide base and one of three commonly used neonicotinoid insecticides: imidacloprid (sold under the trademark GAUCHO 600@0.375 mg ai/seed), clothianidin (sold under the trademark PONCHO 600@0.375 mg ai/seed), and thiomethoxam (sold under the trademark CRUISER@0.34 mg ai/seed).
Fifty seeds from each of the four treatments were planted. […] Seedlings were harvested 28 days after planting and analyzed using the WinRhizo® root analysis system. There was no significant difference in germination.
In Table 1, a comparison of Length, Surface Area, Volume, and Tips/Forks/Crossings, was made through the analysis of 40-45 plants per treatment and by averaging 10 repetitions bracketing the median for each category.

[1] = tested on: Soybeans (Variety-S2743-4RR); experiment: Soybean seed treatment in standard soil, height and WinRhizo root system analysis; details: 28 days
From the text: (§1) Soybeans (Variety-S2743-4RR) were planted with a base fungicide package and imidacloprid (sold under the trademark GAUCHO 600@62.5 gm AI/100 kg), a biological nematicide, or a combination of both. The seed were then planted in standard soil and soil infested with Soybean Cyst nematodes. Plants were harvested 28 days later (˜50 plants/treatment/soil type) and compared by height and by a WinRhizo® root system analysis (length, surface area, volume, tips, forks, and crossings (T/F/C))

[2] = Soybean seed treatment in soil infested with Soybean Cyst nematodes, height and WinRhizo root system analysis; details: SCN-infested soil versus standard soil, same treatment
From the text: as §1
(§2) The final column of Table 2 compares the total average percent difference in each of the treatments with soybean cyst nematode pressure. The plants with the insecticide alone fared the worst with stunted growth both above and below the soil and a total average reduction of 53%. […] The best overall treatment contained both the biological nematicide and the insecticide and there was only an 8% difference in overall plant development.

Soybean Cyst nematodes = experiment: as above
From the text: as §1, §2

[3] = soil infested with Soybean Cyst nematodes (SCN), 28 days

SMILES	Length (cotton seed) [a cm]	SurfArea (cotton seed) [a cm^2]	T/F/C (Tips/Forks/Crossings) (cotton seed) [a]	Volume (cotton seed) [a cm^3]	Height [1] [cm]	Length [1] [cm]	SurfArea [1] [cm^2]	T/F/C [1]	Volume [1] [cm^3]	% difference (total average percent difference with soybean cyst nematode pressure) ([2]; listed as NI) [%]	% difference (total average percent difference with soybean cyst nematode pressure) ([2]; listed as insecticide) [%]	direct nematicidal activity (Soybean Cyst nematodes; insecticide alone)	Height (Soybean Cyst nematodes; [3]) [cm]	Length (Soybean Cyst nematodes; [3]) [cm]	SurfArea (Soybean Cyst nematodes; [3]) [cm^2]	T/F/C (Soybean Cyst nematodes; [3])	Volume (Soybean Cyst nematodes; [3]) [cm^3]
CN1COCN(Cc2cnc(Cl)s2)/C1=N\[N+](=O)[O-] [Thiomethoxam, thiomethoxam]	95.01	17.43	77.17	0.28													
O=[N+]([O-])NC1=NCCN1Cc1ccc(Cl)nc1 [Imidacloprid, imidacloprid]	92.56	20.11	85.60	0.35	26.78	281.93	66.40	497.68	1.25	52.52	53	no direct nematicidal activity	19.09	167.41	44.51	283.90	0.97
CN/C(=N\[N+](=O)[O-])NCc1cnc(Cl)s1 [Clothianidin, clothianidin]	88.11	16.77	93.93	0.29													
